Test in all cases: growth of human tumour cells (NCI), 48 h
The test system of assay [1] is A498.
Assay [2] relates to HT-29.
Assay [3] relates to HOP-92.
Assay [4] has as its system SF-295.
Assay [5] relates to EKVX.
Assay [6] deals with U-251.
Assay [7] has as its system NCI-H460.
For assay [8], the system named is HCT-15.
Assay [9] has as its system M14.
For assay [10], the system named is HCC 2998.
Assay [11] deals with K562.
The subject of assay [12] is SK-MEL-2.
In assay [13] the test system is SW-620.
Assay [14] relates to RXF 393.
Assay [15] has as its system SR.
For assay [16], the system named is PC-3.
Assay [17] has as its system MCF7.
Assay [18] concerns NCI/ADR-RES.

The structures appear in SMILES notation.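 Compound exposure: 48 hours, 5 concentrations, 96-well plates. At the GI50, growth is halved.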 Activity calls are given as the source filed them. Rule as the data show it: active = GI50 up to about 1.1 µM and inactive = higher.

With `Cc1ccc(S(=O)(=O)N[C@H](C(=O)O)c2ccccc2)cc1`, the GI50 in assay [1], in assay [2], in [3], in assay [4], in assay [5] and in [6] was > 100 µM (inactive) each time. The GI50 in assay [7] is > 100 µM (inactive); in assay [8] it was greater than 100 µM; in [9], > 100 µM (inactive); in assay [10] it was > 100 µM (inactive); in assay [11], > 100 µM (inactive); in assay [12], > 100 µM (inactive). Besides, the GI50 in [13] and in [14] was > 100 µM (inactive) in each case.

`CN1CC2CN(Cc3ccccc3)CCN2c2cccnc21` (stereo unspecified): the GI50 in assay [1] is 95.3 µM (inactive); in [2] it was 29.1 µM (inactive); in assay [3] it was 47.4 µM (inactive); in assay [4], 89.5 µM (inactive); in assay [5], 53 µM (inactive); in assay [6] it was 42.8 µM (inactive). The GI50 is 39.1 µM (inactive) in assay [7]; 25.8 µM (inactive) in assay [15]; 28.6 µM in assay [8]; 60.7 µM (inactive) in assay [9]; 45.9 µM (inactive) in assay [16]; 29.2 µM (inactive) in [11]. Moreover, the GI50 in [17] is 39.9 µM (inactive); in assay [12] it was 89.7 µM (inactive); in assay [13], 35.2 µM (inactive); in assay [18] it was 32.1 µM (inactive); in assay [14], > 100 µM (inactive).

Take `Cc1cccc2c1Oc1ncccc1C2NC(=O)CN(C)C` (stereo unspecified): the GI50 was > 10 µM (inactive) in assay [2]; 3.77 µM (inactive) in assay [3]; > 10 µM (inactive) in [4]; > 10 µM (inactive) in assay [5]; > 10 µM (inactive) in assay [6]; > 10 µM (inactive) in assay [7]. Moreover, the GI50 was > 10 µM (inactive) in assay [15]; greater than 10 µM in assay [8]; > 10 µM (inactive) in [9]; > 10 µM (inactive) in assay [10]; > 10 µM (inactive) in [16]; > 10 µM (inactive) in [11]. For the same compound, the GI50 in assay [17], in assay [12], in assay [13] and in assay [18] was > 10 µM (inactive) throughout.

On to `CCCN1C(=O)/C(=C\c2ccc(OC)c(OC)c2)S/C1=N\c1ccccc1`, for which the GI50 was 38.3 µM (inactive) in [1]; > 100 µM (inactive) in [2]; 50.1 µM (inactive) in [3]; 24.2 µM (inactive) in assay [4]; 67.9 µM (inactive) in assay [5]; 27.8 µM (inactive) in assay [6]. The GI50 is > 100 µM (inactive) in assay [7]; > 100 µM (inactive) in assay [15]; greater than 100 µM in [8]; > 100 µM (inactive) in assay [9]; > 100 µM (inactive) in assay [10]; > 100 µM (inactive) in [16]. Besides, the GI50 in assay [11] was > 100 µM (inactive); in assay [17], > 100 µM (inactive); in [12] it was 52.8 µM (inactive); in assay [13], > 100 µM (inactive); in assay [18] it was > 100 µM (inactive).

For the compound `[N-]=[N+]=Nc1c(-c2ccccc2)c(Cl)nc2ccccc12`, the GI50 in assay [1] was 27.5 µM (inactive); in assay [2], 19.7 µM (inactive); in assay [3] it was 22 µM (inactive); in [4] it was 22.8 µM (inactive); in assay [5], 33 µM (inactive); in assay [6], 48 µM (inactive). The GI50 is 31.5 µM (inactive) in assay [7]; 39.5 µM (inactive) in assay [15]; 28.4 µM in assay [8]; 46 µM (inactive) in [9]; 44.2 µM (inactive) in assay [10]; 26.2 µM (inactive) in assay [16]. The GI50 is 45.7 µM (inactive) in assay [11]; 58.3 µM (inactive) in assay [12]; 35.4 µM (inactive) in assay [13]; 34.8 µM (inactive) in assay [18]; 51.6 µM (inactive) in [14].

For the origin of these results see ChEMBL document CHEMBL1201862, “PubChem BioAssay data set” (2004).
